Assay results as given in PMC6435570, “Zafirlukast Is a Dual Modulator of Human Soluble Epoxide Hydrolase and Peroxisome Proliferator-Activated Receptor γ” (Frontiers in Pharmacology, 2019).
“Also recorded” adds a separate entry of the source.

Columns and labels:
3T3-L1 cells = assay: WST-1 assay (mitochondrial activity) in differentiating 3T3-L1 cells; assay type: cell-based, murine; settings: 48 h with differentiation cocktail
Experimental: For measurement of cell proliferation, 3T3-L1 cells were seeded in 24-well plates (0.55 × 10^5/well) instead of 6-wells and the differentiation was carried out as described in the section ‘Adipocyte differentiation’. After 2 days of incubation with the differentiation cocktail with or without the PPARγ agonists, WST-1 reagent (Roche Diagnostic GmbH, Mannheim, Germany) was added (1:10) to the supernatant of the differentiating cells. Then, the cells were further incubated for 2 h at 37°C, 5% CO2 to allow color development. After this, cell supernatant absorbance was measured (λabs = 450 nm) and corrected to a reference wavelength (λabs = 690 nm) with an Infinite F200 plate reader (Tecan Group Ltd., Männedorf, Switzerland). After this, background absorbance was subtracted from all measurements and values were normalized to the differentiated control receiving the differentiation cocktail without addition of a PPARγ agonist (w/o).
In addition to lipid accumulation, mitochondrial activity of 3T3-L1 cells during differentiation was investigated by the turnover of the tetrazolium salt WST-1 into a formazan dye. This provides not only further information on the metabolic capacity of the cells after differentiation but can also indicate toxicity of compounds. For this, 3T3-L1 cells were treated with the differentiation cocktail in the presence or absence of PPARγ agonists for 48 h. After this, WST-1 turnover as a measure for mitochondrial activity was assessed (Figure 2C).

[1] = target: T1, human PPARα ligand binding domain (Homo sapiens, UniProt Q07869); assay: PPAR reporter gene assay (Gal4 hybrid, PPARα); assay type: cell-based; settings: HEK-293T, reference GW7647 1 μM, tested up to 10 μM
T1 construct: expressed in transfected cells; host or cells: HEK-293T
T1 sequence (Q07869 239-466 limits assumed): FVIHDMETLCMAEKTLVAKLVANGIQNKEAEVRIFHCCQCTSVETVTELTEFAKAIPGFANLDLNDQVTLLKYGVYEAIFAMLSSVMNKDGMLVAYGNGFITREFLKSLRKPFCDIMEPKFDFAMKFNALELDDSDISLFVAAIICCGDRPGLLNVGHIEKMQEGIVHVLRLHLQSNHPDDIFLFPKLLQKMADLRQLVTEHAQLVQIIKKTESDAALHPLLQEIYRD
Experimental: HEK-293T cells were seeded in 96-well plates (2.5 × 10^4 cells/well) and were allowed to adhere overnight. Before transfection, medium was changed to Opti-MEM without supplements. Transient plasmid transfection was carried out using Lipofectamine LTX reagent (Invitrogen, Carlsbad, CA, United States) according to the manufacturer’s protocol with pFR-Luc (Stratagene, La Jolla, CA, United States), pRL-SV40 (Promega, Fitchburg, MA, United States) and pFA-CMV-PPAR-LBD ([Rau et al., 2006]). 5 h after transfection, medium was changed to Opti-MEM supplemented with penicillin (100 U/mL) and streptomycin (100 μg/mL), now additionally containing 0.1% DMSO and the respective test compound or 0.1% DMSO alone as untreated control. Each concentration was tested in triplicates and each experiment was repeated independently at least four times. Following overnight (12–16 h) incubation with the test compounds, cells were assayed for luciferase activity using the Dual-Glo^TM Luciferase Assay System (Promega, Fitchburg, MA, United States) according to the manufacturer’s protocol. Luminescence was measured with an Infinite M200 luminometer (Tecan Group Ltd., Männedorf, Switzerland). Normalization of transfection efficiency and cell growth was done by division of firefly luciferase data by renilla luciferase data and multiplying the value by 1000 resulting in relative light units (RLU). Fold activation was obtained by dividing the mean RLU of a test compound at a respective concentration by the mean RLU of untreated control. Relative activation was obtained by dividing the fold activation of a test compound at a respective concentration by the fold activation of the respective PPARα, γ or δ full agonist GW-7647, pioglitazone or L165,041 at 1 μM. EC50 and standard deviation were calculated with the mean relative activation values of at least four independent experiments by SigmaPlot 10.0 (Systat Software GmbH, Erkrath, Germany) using a four parameter logistic regression. […]

[2] = target: T2, human PPARγ ligand binding domain (Homo sapiens, UniProt P37231); assay: PPAR reporter gene assay (Gal4 hybrid, PPARγ); settings: for Emax: read-out: PPARγ maximal activation, HEK-293T, relative to pioglitazone (1 μM)
T2 sequence (P37231 238-503 limits assumed): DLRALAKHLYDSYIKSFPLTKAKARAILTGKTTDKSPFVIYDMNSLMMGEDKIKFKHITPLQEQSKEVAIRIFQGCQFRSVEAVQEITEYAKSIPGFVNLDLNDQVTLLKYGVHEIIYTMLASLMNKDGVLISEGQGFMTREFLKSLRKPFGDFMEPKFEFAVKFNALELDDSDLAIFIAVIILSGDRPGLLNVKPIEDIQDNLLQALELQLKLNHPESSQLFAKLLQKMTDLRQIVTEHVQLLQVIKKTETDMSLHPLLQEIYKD
Experimental: HEK-293T cells were seeded in 96-well plates (2.5 × 10^4 cells/well) and were allowed to adhere overnight. Before transfection, medium was changed to Opti-MEM without supplements. Transient plasmid transfection was carried out using Lipofectamine LTX reagent (Invitrogen, Carlsbad, CA, United States) according to the manufacturer’s protocol with pFR-Luc (Stratagene, La Jolla, CA, United States), pRL-SV40 (Promega, Fitchburg, MA, United States) and pFA-CMV-PPAR-LBD ([Rau et al., 2006]). 5 h after transfection, medium was changed to Opti-MEM supplemented with penicillin (100 U/mL) and streptomycin (100 μg/mL), now additionally containing 0.1% DMSO and the respective test compound or 0.1% DMSO alone as untreated control. Each concentration was tested in triplicates and each experiment was repeated independently at least four times. Following overnight (12–16 h) incubation with the test compounds, cells were assayed for luciferase activity using the Dual-Glo^TM Luciferase Assay System (Promega, Fitchburg, MA, United States) according to the manufacturer’s protocol. Luminescence was measured with an Infinite M200 luminometer (Tecan Group Ltd., Männedorf, Switzerland). Normalization of transfection efficiency and cell growth was done by division of firefly luciferase data by renilla luciferase data and multiplying the value by 1000 resulting in relative light units (RLU). Fold activation was obtained by dividing the mean RLU of a test compound at a respective concentration by the mean RLU of untreated control. Relative activation was obtained by dividing the fold activation of a test compound at a respective concentration by the fold activation of the respective PPARα, γ or δ full agonist GW-7647, pioglitazone or L165,041 at 1 μM. EC50 and standard deviation were calculated with the mean relative activation values of at least four independent experiments by SigmaPlot 10.0 (Systat Software GmbH, Erkrath, Germany) using a four parameter logistic regression.
For this, a hybrid receptor construct containing the respective human PPAR ligand binding domain and hinge region fused to the DNA binding domain of the yeast nuclear receptor Gal4 and a Gal4-responsive firefly luciferase construct were co-transfected into HEK-293T cells together with a plasmid constitutively expressing Renilla luciferase for normalization of transfection efficiency and cell growth. Activation of the PPAR isoforms was compared to 1 μM of the well characterized agonists GW7647, L165,041, and pioglitazone for PPARα, δ, and γ, respectively.

[3] = tested on: PPARγ, FABP-4 and CD36 protein in 3T3-L1 adipocytes; assay: Protein expression in differentiated 3T3-L1 adipocytes (Western Blot); assay type: cell-based, murine; settings: rosiglitazone 2 μM; for PPARγ isoforms γ1 and γ2 protein expression: 3T3-L1 differentiated with cocktail plus compound; for Protein expression of PPARγ target genes FABP-4 and CD36: after 14 days
Experimental: 3T3-L1 cells were differentiated into adipocytes for 14 days according to the protocol of [Zebisch et al. (2012)]. For this, cells were seeded in 6-well plates ([…]) and differentiation was induced after 48 h by addition of a differentiation cocktail containing 1 μg/mL insulin, 0.25 μM dexamethasone and 0.5 mM isobutylmethylxanthine (IBMX) in DMEM supplemented with 10% FCS and 1% PS. […] After 2 days, medium was replaced by DMEM supplemented with 10% FCS, 1% PS and 1 μg/mL insulin for 2 more days. Afterwards, cells were kept for lipid droplet accumulation in DMEM containing 10% FCS and 1% PS until day 15. Media were replaced every other day.
Total 3T3-L1 or HEP-G2 cell lysates were prepared in lysis buffer (20 mM Tris-HCl, pH 7.4, 150 mM NaCl, 2 mM EDTA, 1% Triton X-100, 0.5% NP-40) supplemented with protease and phosphatase inhibitors (PhosSTOP^TM + cOmplete^TM Mini, Roche Diagnostics GmbH, Mannheim, Germany). Protein concentrations were quantified using the Pierce^TM BCA Protein Assay Kit (Thermo Scientific, Waltham, MA, United States). Total protein (30 μg/lane) was separated by SDS-polyacrylamide gel electrophoresis and transferred to nitrocellulose membranes (GE Healthcare Life Sciences, Little Chalfont, United Kingdom). Membranes were blocked with Odyssey blocking reagent (LI-COR Biosciences, Bad Homburg, Germany) for 1 h at room temperature. Ensuing, membranes were incubated with antibodies against CD36 (EPR6573, Abcam, Cambridge, United Kingdom), PPARγ (E-8, Santa Cruz Biotechnology, Heidelberg, Germany), FABP-4 (C-15, Santa Cruz Biotechnology, Heidelberg, Germany) or PPARγ Ser273 (Bioss Antibodies Inc., Woburn, MA, United States) overnight at 4°C. Afterwards, membranes were washed and incubated with fluorescence conjugated secondary antibodies (IRDye, LI-COR Biosciences, Bad Homburg, Germany). Protein antibody complexes were visualized on the Odyssey Infrared Imaging System (LI-COR Biosciences, Bad Homburg, Germany). β-actin (I-19, goat, polyclonal, Santa Cruz Biotechnology, Heidelberg, Germany) was used as loading control. The density of the immune reactive bands was analyzed using the Image Studio 5.2 software (LI-COR Biosciences, Bad Homburg, Germany).
As master regulator of adipocyte differentiation in men and mice, PPARγ plays a crucial role in the cell’s commitment to the adipocyte lineage by controlling important functions such as intracellular biosynthesis, transport and accumulation of lipids. Murine 3T3-L1 fibroblasts are a well characterized in vitro tool to study PPARγ induced adipocyte differentiation. These cells can be differentiated from fibroblasts into adipocytes by an activation cocktail (0.5 mM IBMX, 1 μg/mL insulin, 0.25 μM dexamethasone) together with the potential PPARγ agonist. Upon differentiation, different parameters such as lipid accumulation and PPARγ target gene expression can be assessed to investigate the PPARγ activating potential of the compounds of interest. […] Rosiglitazone (2 μM) was used as positive control. This was followed by insulin (1 μg/mL) treatment for another 48 h. After this, cells were kept in growth medium for a week to complete the differentiation process and allow intracellular lipid accumulation. Subsequently, the cells were stained with Oil Red O solution to investigate the extent of cytoplasmic lipid droplet accumulation as a measure for cell differentiation.
In addition to mRNA expression, the protein expression levels of the two PPARγ target genes FABP-4 and CD36 in differentiated 3T3-L1 cells after 14 days were investigated. For this, total protein lysates were separated by gel electrophoresis followed by Western Blotting (Figure 3E,F and Supplementary Figures S2A,B).

Row | PPARα EC50 [1] | Emax ([2]; HEK-293T) | EC50 [2] | PPARγ maximal activation ([2]; HEK-293T, relative to pioglitazone (1 μM)) | Compound | WST-1 turnover (mitochondrial activity) versus w/o control (3T3-L1 cells; 10 μM) | PPARγ isoforms γ1 and γ2 protein expression [3] | Protein expression of PPARγ target genes FABP-4 and CD36 [3] | WST-1 turnover (mitochondrial activity) versus w/o control (3T3-L1 cells; 1 μM) | WST-1 turnover (mitochondrial activity) versus w/o control (3T3-L1 cells; 5 and 10 μM)
1 | i.a. @ 10 μM | 21.9% |  |  | CC(C)(O)c1ccccc1CC[C@@H](SCC1(CC(=O)O)CC1)c1cccc(/C=C/c2ccc3ccc(Cl)cc3n2)c1 [Montelukast, montelukast] | over threefold | not affected | no effect at all |  | 
2 | i.a. @ 10 μM | ~150% | 2490 ± 450 nM | 148 ± 15% | COc1cc(C(=O)NS(=O)(=O)c2ccccc2C)ccc1Cc1cn(C)c2ccc(NC(=O)OC3CCCC3)cc12 [Zafirlukast, zafirlukast] |  | upregulated the protein levels | induced target gene expression as well but to a weaker extent | threefold | comparable to the w/o control; also recorded: had no influence on mitochondrial activity
